Test [1] concerns Sindbis-infected BHK-21 cells. The conditions noted are these: cited from earlier work.
The test system of a further test is Sindbis viral particles. The test is described as follows: Virus production from BHK-21 cells infected with VB222-derived Sindbis viral particles under drug treatment. The class given is cell-based. The conditions noted are these: multiplicity of infection 0.05, viral particles collected 6 hours later. The procedure:
The viral genome was transcribed from plasmid VB222. The exogenous nucleic acid encodes GFP to facilitate detection of transfected and/or infected cells. BHK-21 cells were transfected with said viral genome and viral particles were collected 34 hours later. These viral particles were tittered by standard plaque assay and used to infect BHK-21 cells at a multiplicity of infection of 0.05. The medium was changed one hour post-infection. Drugs were added one hour post-infection at a concentration of 200 nM (okadaic acid) or 30 μg/ml (cerulenin) and viral particles were collected 6 hours later. […] Treatment with the drug could be maintained while propagating the viral particles, thereby further decreasing the number of viral particles produced from viral genomes expressing an exogenous nucleic acid encoding a peptide or protein that is not involved in drug-resistance.

Like-named read-outs stand apart in the source and are kept apart here.

As to `C/C=C/C/C=C/CCC(=O)[C@H]1O[C@H]1C(N)=O` [cerulenin], the “production of viral particles” value in test [1] (30 μg/ml) is recorded as “impairs production of viral particles”. Further, the “decrease in virus production” value with Sindbis viral particles (cerulenin 30 μg/ml added one hour post-infection) came to 39 fold.

In the case of `C=C1[C@@H](O)[C@@H]2O[C@]3(CC[C@H](/C=C/[C@@H](C)[C@@H]4CC(C)=C[C@@]5(O[C@H](C[C@@](C)(O)C(=O)O)CC[C@H]5O)O4)O3)CC[C@H]2O[C@@H]1[C@@H](O)C[C@H](C)[C@H]1O[C@@]2(CCCCO2)CC[C@H]1C` [okadaic acid], the “production of viral particles” value in test [1] (200 nM) is recorded as “impairs production of viral particles”. Moreover, in the test on Sindbis viral particles (okadaic acid 200 nM added one hour post-infection), the “decrease in virus production” value is recorded as 13 fold.

(Values after patent US6830885B1, “Nucleic acid molecule, method and kit for selecting a nucleic acid having a desired feature” (priority 2000, dated 2004).)
